# Source: PubChem BioAssay (NCI)
#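 Briefly, cells in 96-well plates were exposed to five compound concentrations for 48 h, and endpoints were estimated by linear interpolation. TGI: concentration producing complete growth inhibition.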
# Assays:
# Test in all cases: DTP human tumour cell line panel, 48 h
# [1] = system: SW-620 colon
# [2] = system: KM12 colon
# [3] = system: OVCAR-8 ovarian
# [4] = system: IGROV1 ovarian
# [5] = system: HT29 colon
# [6] = system: SNB-19 CNS
# [7] = system: MALME-3M melanoma
# [8] = system: OVCAR-4 ovarian
# [9] = system: U251 CNS
# [10] = system: TK-10 renal
# [11] = system: SR leukemia
# [12] = system: CAKI-1 renal
# [13] = system: M19-MEL melanoma
# [14] = system: LXFL 529 NSCLC
# [15] = system: SNB-78 CNS
# [16] = system: SK-MEL-28 melanoma
# [17] = system: MOLT-4 leukemia
# [18] = system: CCRF-CEM leukemia
# [19] = system: K-562 leukemia
# [20] = system: SK-MEL-2 melanoma
# [21] = system: RXF 393 renal
# [22] = system: OVCAR-3 ovarian
# [23] = system: HOP-92 NSCLC
# [24] = system: DLD-1 colon
# [25] = system: UACC-62 melanoma
# [26] = system: COLO 205 colon
# [27] = system: SN12C renal
# [28] = system: KM20L2 colon
# [29] = system: OVCAR-5 ovarian
# [30] = system: M14 melanoma
# [31] = system: UO-31 renal
# [32] = system: HCT-15 colon
# [33] = system: XF 498 CNS
# [34] = system: NCI-H522 lung
# [35] = system: NCI-H23 lung
# [36] = system: SK-MEL-5 melanoma
# [37] = system: HCC-2998 colon
# [38] = system: SK-OV-3 ovarian
# [39] = system: SF-295 CNS
# [40] = system: NCI-H226 lung
# [41] = system: DMS 114 small cell lung
# [42] = system: DMS 273 small cell lung
# [43] = system: SNB-75 CNS
# [44] = system: HOP-62 NSCLC
# [45] = system: SF-539 CNS
# [46] = system: 786-0 renal
# [47] = system: SF-268 CNS
# [48] = system: A549 NSCLC
# [49] = system: EKVX NSCLC
# [50] = system: NCI-H460 lung
# [51] = system: LOX IMVI melanoma
# [52] = system: ACHN renal
structure (smiles),measurement,setting,value
CC1=N/C(=C\c2ccc(C)cc2)C(=O)O1,TGI,[1],> 100 µM
same,TGI,[2],> 100 µM
same,TGI,[3],> 100 µM
same,TGI,[4],> 100 µM
same,TGI,[5],> 100 µM
same,TGI,[6],> 100 µM
same,TGI,[7],> 100 µM
same,TGI,[8],> 100 µM
same,TGI,[9],> 100 µM
same,TGI,[10],> 100 µM
same,TGI,[11],> 100 µM
same,TGI,[12],> 100 µM
same,TGI,[13],> 100 µM
same,TGI,[14],> 100 µM
same,TGI,[15],> 100 µM
same,TGI,[16],> 100 µM
same,TGI,[17],> 100 µM
same,TGI,[18],> 100 µM
same,TGI,[19],> 100 µM
same,TGI,[20],> 100 µM
same,TGI,[21],> 100 µM
same,TGI,[22],> 100 µM
same,TGI,[23],> 100 µM
same,TGI,[24],> 100 µM
same,TGI,[25],> 100 µM
same,TGI,[26],> 100 µM
same,TGI,[27],> 100 µM
same,TGI,[28],> 100 µM
same,TGI,[29],> 100 µM
same,TGI,[30],> 100 µM
same,TGI,[31],> 100 µM
same,TGI,[32],> 100 µM
same,TGI,[33],> 100 µM
same,TGI,[34],> 100 µM
same,TGI,[35],> 100 µM
same,TGI,[36],> 100 µM
same,TGI,[37],> 100 µM
same,TGI,[38],> 100 µM
same,TGI,[39],> 100 µM
CN(C)c1ccc(/C=c2/sc3nc(=O)c(-c4ccccc4NC(=O)C(F)(F)F)nn3c2=O)cc1,TGI,[1],> 100 µM
same,TGI,[2],> 100 µM
same,TGI,[3],> 100 µM
same,TGI,[4],> 100 µM
same,TGI,[5],> 100 µM
same,TGI,[6],> 100 µM
same,TGI,[7],> 100 µM
same,TGI,[8],> 100 µM
same,TGI,[9],> 100 µM
same,TGI,[10],> 100 µM
same,TGI,[11],> 100 µM
same,TGI,[12],> 100 µM
same,TGI,[13],> 100 µM
same,TGI,[14],> 100 µM
same,TGI,[40],> 100 µM
same,TGI,[41],57.2 µM
same,TGI,[42],> 100 µM
same,TGI,[15],> 100 µM
same,TGI,[43],> 100 µM
same,TGI,[16],> 100 µM
same,TGI,[17],> 100 µM
same,TGI,[18],> 100 µM
same,TGI,[19],> 100 µM
same,TGI,[20],> 100 µM
same,TGI,[21],> 100 µM
same,TGI,[22],> 100 µM
same,TGI,[23],> 100 µM
same,TGI,[24],> 100 µM
same,TGI,[44],> 100 µM
same,TGI,[45],> 100 µM
same,TGI,[25],> 100 µM
same,TGI,[26],> 100 µM
same,TGI,[46],> 100 µM
same,TGI,[27],> 100 µM
same,TGI,[47],> 100 µM
same,TGI,[29],> 100 µM
same,TGI,[48],> 100 µM
same,TGI,[49],> 100 µM
same,TGI,[30],> 100 µM
same,TGI,[31],> 100 µM
same,TGI,[50],> 100 µM
same,TGI,[51],> 100 µM
same,TGI,[33],> 100 µM
same,TGI,[34],> 100 µM
same,TGI,[35],> 100 µM
same,TGI,[36],> 100 µM
same,TGI,[52],> 100 µM
same,TGI,[37],> 100 µM
same,TGI,[38],> 100 µM
same,TGI,[39],> 100 µM
